The results in this text go back to patent US20220243211A1, “PEPTIDE NUCLEIC ACID COMPOSITIONS WITH MODIFIED HOOGSTEEN BINDING SEGMENTS AND METHODS OF USE THEREOF” (Yale University, priority 2019, published 2022).

[PNA-N] = peptide nucleic acid monomer (N: the base)

Series [1] in a line: Zeta potential and hydrodynamic diameter of formulated NPs by dynamic light scattering. Format: physicochemical. Conditions: NPs containing PNA/donor DNA, PBS buffer, n = 3; for Z Av Diameter: dynamic light scattering. Here is the method:
Blank NPs containing no PNA and a mismatch donor DNA as a control were prepared as a control. The mismatched donor DNA was purposely added into blank NPs because addition of donor DNA helps to produce a similar surface charge on the control NPs as on the test NPs encapsulated with PNA/donor DNA combinations. […] All NP in the diameters were in the range of 200-350 nm, as measured by dynamic light scattering (Table 1), consistent with previous measurements (McNeer, et al., Nat Commun 6, 6952 (2015), Fields, et al., Adv Healthc Mater 4, 361-366 (2015), Fields, et al., J Control Release 164, 41-48 (2012)). PNA/DNA-loaded NPs were cationic (Fields, et al., Adv Healthc Mater 4, 361-366 (2015), Fields, et al., J Control Release 164, 41-48 (2012)) for PBAE/PLGA/MPG NPs (Table 1).

Series [2] concerns CFTR function in the nasal epithelium. The experiment in a line: Nasal potential difference (NPD) in CF mice after intranasal NPs. Format: in vivo, mouse. The note with it: F508del CF mice, intranasal PBAE/PLGA/MPG NPs with PNA/donor DNA. On the procedure:
FIG. 4 is a dot plot showing functional correction of CFTR with modified NPs in vivo. Mice were treated by intranasal administration with NPs. Nasal potential difference measurements were evaluated before and after NP treatments. The response to a 0Cl+amiloride+forksolin perfusate after NP treatment was compared to the response prior to treatment. Pre- and post-treatment changes in NPD were compared using paired t tests for each mouse. Each mouse is represented with an individual data point; in addition, the mean is shown with a horizontal line, surround by error bars showing the standard error of the mean. In the last panel, nasal potential difference changes in wild type mice are shown for comparison. […]
To determine if gamma tcPNAs were more efficient editing agents than classic PNA in vivo, CF mice were treated intranasally with PBAE/PLGA/MPG NPs containing mCF-PNA/DNA or γmCF-PNA-h/DNA on days 1, 3, 6, and 9. Subsequently, CF mice were assessed for CFTR function in the nasal epithelium by measuring the nasal potential difference (NPD), a non-invasive assay used to detect cAMP-stimulated chloride transport in vivo. […] NPD is assessed in all mice prior to treatment with NPs and reassessed after treatment such that alterations in this measure can be used as a surrogate of restored CFTR function.

The conditions of series [3]: mouse, in vivo. On the procedure:
To collect the lungs for histopathology, a midline incision from sternum to diaphragm was performed and, to remove blood from the pulmonary circulation, PBS+heparin was perfused via the right ventricle using a 20 g needle. Lungs were inflated with 0.5% low melt agarose at constant pressure, then removed from the chest and placed in fixative. Paraffin embedded tissues were stained with hemotoxylin and eosin stain for imaging.
To investigate whether NPs could effectively deliver the gene editing reagents to the lung TAMRA-conjugated mouse specific PNA (γmCF PNA-h) and mouse donor DNA into PBAE/PLGA/MPG NPs were formulated. After intranasal administration of γmCF PNA-h/DNA NPs into CF mice, the lungs were harvested and PNA uptake was assessed by fluorescence microscopy.

Consider “H-KKK-JTTTTJJJ-OOO-CCCTTTTCAAGGTGAGTAG-KKK-NH2 [mCF PNA] (NTTTTNNNCCCTTTTCAAGGTGAGTAG; listed as DNA, chemistry not fully specified)”, for which, in series [1], the “Zeta Potential” value was 46.17 mV and the “Z Av Diameter” value turned out to be 317.8 nm. In series [2], the “treated mice showing response to cyclic AMP stimulation (cyclic AMP activated Cl− conductance) in NPD” value is reported as 50%.
Take “H-KKK-JTTTTJJJ-OOO-CCCTTTTCAAGGTGAGTAG-KKK-NH2 [γmCF PNA-h] (NTTTTNNNCCCTTTTCAAGGTGAGTAG; all [PNA-N], the base at N not given here; lysine tripeptides at both ends, OOO linker, some gamma-modified PNA monomers, further chemistry not fully specified) [tail clamp PNA targeting mouse CFTR gene with MPγ monomers in Hoogsteen domain]”: in series [1], the “Zeta Potential” value stood at 36.17 mV and the “Z Av Diameter” value was determined as 349.1 nm. In addition, the “treated mice showing response to cyclic AMP stimulation (cyclic AMP activated Cl− conductance) in NPD” value in series [2] turned out to be 79%. Further, the “histology of nasal epithelia / respiratory tract” value in series [3] is “No significant differences in the histology of the nasal epithelia”.
